Measured values published in ChEMBL document CHEMBL1649246, “Complete nucleotide sequences of plasmids pEK204, pEK499, and pEK516, encoding CTX-M enzymes in three major Escherichia coli lineages from the United Kingdom, all belonging to the international O25:H4-ST131 clone” (2009).
In brackets after ≈: the same amount, converted by molar mass.

Tests used:
Format in all cases: functional
Escherichia coli [1] = assay: Antimicrobial activity against Escherichia coli J53
Escherichia coli [2] = assay: Antimicrobial activity against Escherichia coli DH5[alpha]
Escherichia coli [3] = assay: Antimicrobial activity against Escherichia coli DH5[alpha] harboring pEK516 plasmid encoding CTX-M extended-spectrum beta-lactamases
Escherichia coli [4] = assay: Antimicrobial activity against Escherichia coli J53 harboring pEK499 plasmid encoding CTX-M extended-spectrum beta-lactamases
Escherichia coli [5] = assay: Antimicrobial activity against Escherichia coli J53 harboring pEK204 plasmid encoding CTX-M extended-spectrum beta-lactamases in presence of beta-lactamase inhibitor clavulanic acid
Escherichia coli [6] = assay: Antimicrobial activity against Escherichia coli J53 in presence of beta-lactamase inhibitor clavulanic acid
Escherichia coli [7] = assay: Antimicrobial activity against Escherichia coli DH5[alpha] in presence of beta-lactamase inhibitor clavulanic acid
Escherichia coli [8] = assay: Antimicrobial activity against Escherichia coli J53 harboring pEK499 plasmid encoding CTX-M extended-spectrum beta-lactamases in presence of beta-lactamase inhibitor clavulanic acid
Escherichia coli [9] = assay: Antimicrobial activity against Escherichia coli DH5[alpha] harboring pEK516 plasmid encoding CTX-M extended-spectrum beta-lactamases in presence of beta-lactamase inhibitor clavulanic acid
Escherichia coli [10] = assay: Antimicrobial activity against Escherichia coli J53 harboring pEK204 plasmid encoding CTX-M extended-spectrum beta-lactamases
Escherichia coli [11] = assay: Antimicrobial activity against Escherichia coli J53 in presence of beta-lactamase inhibitor Tazobactam
Escherichia coli [12] = assay: Antimicrobial activity against Escherichia coli J53 harboring pEK204 plasmid encoding CTX-M extended-spectrum beta-lactamases in presence of beta-lactamase inhibitor Tazobactam
Escherichia coli [13] = assay: Antimicrobial activity against Escherichia coli DH5[alpha] harboring pEK516 plasmid encoding CTX-M extended-spectrum beta-lactamases in presence of beta-lactamase inhibitor Tazobactam
Escherichia coli [14] = assay: Antimicrobial activity against Escherichia coli DH5[alpha] in presence of beta-lactamase inhibitor Tazobactam
Escherichia coli [15] = assay: Antimicrobial activity against Escherichia coli J53 harboring pEK499 plasmid encoding CTX-M extended-spectrum beta-lactamases in presence of beta-lactamase inhibitor Tazobactam

Molecule | MIC (Escherichia coli [1]) [µg/mL] | MIC (Escherichia coli [2]) [µg/mL] | MIC (Escherichia coli [3]) [µg/mL] | MIC (Escherichia coli [4]) [µg/mL] | MIC (Escherichia coli [10]) [µg/mL] | also measured
C[C@@H](O)[C@H]1C(=O)N2C(C(=O)O)=C(S[C@@H]3CN[C@H](C(=O)Nc4cccc(C(=O)O)c4)C3)[C@H](C)[C@H]12 | ≤ 0.125 | ≤ 0.125 | – | – | – | –
NCC[C@H](O)C(=O)N[C@@H]1C[C@H](N)[C@@H](O[C@H]2O[C@H](CN)[C@@H](O)[C@H](O)[C@H]2O)[C@H](O)[C@H]1O[C@H]1O[C@H](CO)[C@@H](O)[C@H](N)[C@H]1O [AMIKACIN] | ≤ 0.5 | 1 (≈ 1.71 µM) | 2 (≈ 3.42 µM) | 4 (≈ 6.83 µM) | – | –
CC1(C)S[C@@H]2[C@H](NC(=O)[C@H](N)c3ccc(O)cc3)C(=O)N2[C@H]1C(=O)O [AMOXICILLIN] | – | – | – | – | – | MIC (Escherichia coli [5]): 16 µg/mL; MIC (Escherichia coli [6]): 8 µg/mL; MIC (Escherichia coli [7]): 8 µg/mL; MIC (Escherichia coli [8]): 32 µg/mL; MIC (Escherichia coli [9]): 16 µg/mL
CC1(C)S[C@@H]2[C@H](NC(=O)[C@H](N)c3ccccc3)C(=O)N2[C@H]1C(=O)O [AMPICILLIN] | 8 (≈ 22.9 µM) | 16 (≈ 45.8 µM) | > 64 | > 64 | > 64 | –
C[C@H]1[C@H](NC(=O)/C(=N\OC(C)(C)C(=O)O)c2csc(N)n2)C(=O)N1S(=O)(=O)O [AZTREONAM] | – | 0.25 (≈ 0.574 µM) | 32 (≈ 73.5 µM) | > 64 | 8 (≈ 18.4 µM) | –
CO/N=C(\C(=O)N[C@@H]1C(=O)N2C(C(=O)O)=C(COC(C)=O)CS[C@H]12)c1csc(N)n1 [CEFOTAXIME] | ≤ 0.125 | 0.25 (≈ 0.549 µM) | 128 (≈ 281 µM) | 256 (≈ 562 µM) | 64 (≈ 141 µM) | MIC (Escherichia coli [5]): 0.125 µg/mL; MIC (Escherichia coli [6]): ≤ 0.06 µg/mL; MIC (Escherichia coli [7]): ≤ 0.06 µg/mL; MIC (Escherichia coli [8]): 0.125 µg/mL
CO[C@@]1(NC(=O)Cc2cccs2)C(=O)N2C(C(=O)O)=C(COC(N)=O)CS[C@@H]21 [CEFOXITIN] | 8 (≈ 18.7 µM) | 8 (≈ 18.7 µM) | 8 (≈ 18.7 µM) | 8 (≈ 18.7 µM) | 8 (≈ 18.7 µM) | –
CO/N=C(\C(=O)N[C@@H]1C(=O)N2C(C(=O)[O-])=C(C[n+]3cccc4c3CCC4)CS[C@H]12)c1csc(N)n1 [CEFPIROME] | ≤ 0.125 | ≤ 0.125 | 64 (≈ 124 µM) | > 64 | 16 (≈ 31.1 µM) | MIC (Escherichia coli [6]): ≤ 0.06 µg/mL; MIC (Escherichia coli [7]): ≤ 0.06 µg/mL
CC(C)(O/N=C(\C(=O)N[C@@H]1C(=O)N2C(C(=O)[O-])=C(C[n+]3ccccc3)CS[C@H]12)c1csc(N)n1)C(=O)O [CEFTAZIDIME] | 0.25 (≈ 0.457 µM) | 0.25 (≈ 0.457 µM) | 16 (≈ 29.3 µM) | 64 (≈ 117 µM) | 2 (≈ 3.66 µM) | MIC (Escherichia coli [5]): 0.25 µg/mL; MIC (Escherichia coli [6]): 0.25 µg/mL; MIC (Escherichia coli [7]): 0.25 µg/mL; MIC (Escherichia coli [8]): 0.5 µg/mL; MIC (Escherichia coli [9]): 0.25 µg/mL
O=C(N[C@H](CO)[C@H](O)c1ccc([N+](=O)[O-])cc1)C(Cl)Cl [CHLORAMPHENICOL] | 2 (≈ 6.19 µM) | 2 (≈ 6.19 µM) | 2 (≈ 6.19 µM) | 2 (≈ 6.19 µM) | 2 (≈ 6.19 µM) | –
O=C(O)c1cn(C2CC2)c2cc(N3CCNCC3)c(F)cc2c1=O [CIPROFLOXACIN] | ≤ 0.125 | ≤ 0.125 | – | – | – | –
C[C@@H](O)[C@H]1C(=O)N2C(C(=O)O)=C(SCCNC=N)C[C@H]12 [IMIPENEM ANHYDROUS] | 0.25 (≈ 0.835 µM) | 0.5 (≈ 1.67 µM) | – | – | – | –
C[C@@H](O)[C@H]1C(=O)N2C(C(=O)O)=C(S[C@@H]3CN[C@H](C(=O)N(C)C)C3)[C@H](C)[C@H]12 [MEROPENEM] | ≤ 0.06 | ≤ 0.06 | – | – | – | –
CN(C)c1ccc(O)c2c1C[C@H]1C[C@H]3[C@H](N(C)C)C(O)=C(C(N)=O)C(=O)[C@@]3(O)C(O)=C1C2=O [MINOCYCLINE] | 0.25 (≈ 0.546 µM) | 0.25 (≈ 0.546 µM) | 4 (≈ 8.74 µM) | 2 (≈ 4.37 µM) | 0.25 (≈ 0.546 µM) | –
CCN1CCN(C(=O)N[C@@H](C(=O)N[C@@H]2C(=O)N3[C@@H]2SC(C)(C)[C@@H]3C(=O)O)c2ccccc2)C(=O)C1=O [PIPERACILLIN] | 4 (≈ 7.73 µM) | 4 (≈ 7.73 µM) | 64 (≈ 124 µM) | > 64 | > 64 | MIC (Escherichia coli [11]): 4 µg/mL; MIC (Escherichia coli [12]): 4 µg/mL; MIC (Escherichia coli [13]): 4 µg/mL; MIC (Escherichia coli [14]): 4 µg/mL; MIC (Escherichia coli [15]): 16 µg/mL
CN[C@@H]1[C@H](O[C@H]2[C@H](O[C@H]3[C@H](O)[C@@H](O)[C@H](N=C(N)N)[C@@H](O)[C@@H]3N=C(N)N)O[C@@H](C)[C@]2(O)C=O)O[C@@H](CO)[C@H](O)[C@H]1O [STREPTOMYCIN] | 1 (≈ 1.72 µM) | 1 (≈ 1.72 µM) | 0.5 (≈ 0.86 µM) | 32 (≈ 55 µM) | 2 (≈ 3.44 µM) | –
Cc1cc(NS(=O)(=O)c2ccc(N)cc2)no1 [SULFAMETHOXAZOLE] | 16 (≈ 63.2 µM) | 2 (≈ 7.9 µM) | 2 (≈ 7.9 µM) | > 1020 | 16 (≈ 63.2 µM) | –
CN(C)[C@@H]1C(O)=C(C(N)=O)C(=O)[C@@]2(O)C(O)=C3C(=O)c4c(O)cccc4[C@@](C)(O)[C@H]3C[C@@H]12 [TETRACYCLINE] | 1 (≈ 2.25 µM) | 1 (≈ 2.25 µM) | 32 (≈ 72 µM) | 32 (≈ 72 µM) | 1 (≈ 2.25 µM) | –
CN(C)c1cc(NC(=O)CNC(C)(C)C)c(O)c2c1C[C@H]1C[C@H]3[C@H](N(C)C)C(O)=C(C(N)=O)C(=O)[C@@]3(O)C(O)=C1C2=O [TIGECYCLINE] | ≤ 0.25 | ≤ 0.25 | – | – | – | –
NC[C@H]1O[C@H](O[C@H]2[C@H](O)[C@@H](O[C@H]3O[C@H](CO)[C@@H](O)[C@H](N)[C@H]3O)[C@H](N)C[C@@H]2N)[C@H](N)C[C@@H]1O [TOBRAMYCIN] | 0.25 (≈ 0.535 µM) | 0.5 (≈ 1.07 µM) | 8 (≈ 17.1 µM) | 8 (≈ 17.1 µM) | 0.5 (≈ 1.07 µM) | –
COc1cc(Cc2cnc(N)nc2N)cc(OC)c1OC [TRIMETHOPRIM] | 0.06 (≈ 0.207 µM) | 0.06 (≈ 0.207 µM) | 0.03 (≈ 0.103 µM) | > 32 | 0.06 (≈ 0.207 µM) | –
COLISTIN | < 0.5 | < 0.5 | < 0.5 | < 0.5 | < 0.5 | –
GENTAMICIN | 0.25 | – | 8 | 0.25 | 0.25 | –
